Experimental data taken from patent US20250213598A1, “COMPOUNDS AS ELASTASE INHIBITOR AND SOLID FORM THEREOF” (priority 2023, published 2025).
In brackets after ≈: the same amount, converted by molar mass.

Legend:
[1] = Solid-state stability, 2-week study (HPLC, XRPD); assay type: physicochemical; details: for crystal form changes in the two-week stability assessment: 25° C./60% RH, 40° C./75% RH, two weeks
Description: The solubility and stability are analyzed using an Agilent 1260 infinityII Binary Pump. • 4.

[2] = Photostability of crystal form A and amorphous form; assay type: physicochemical; details: for Content (%) / Crystal form / Purity (area %) / Relative to initial (%): After 11 days, 25° C., illumination 5000 lux/h, near-ultraviolet 90 μW/cm^2; for crystal form changes in the photostability test: light conditions
Description: A certain amount of crystal form A and amorphous form of the compound shown in Formula (I) were respectively taken, and the stabilities of crystal form A and amorphous form were evaluated under light conditions.

[3] = Dynamic solubility in citrate buffer solutions at room temperature; assay type: physicochemical; details: for pH: supernatant
Description: During the test, about 200 mg of crystal form A or the amorphous form was added into 5 mL of buffered salt medium (approximately 40 mg/mL), and stirred magnetically at room temperature (approximately 25° C.). 1 mL of the suspension (or clear solution) taken at each of 2, 8, and 30 hours were centrifugated. The obtained solid is for crystal form detection (XRPD), and the supernatant/clear liquid after filtration is for solubility testing (HPLC) and pH testing.

[4] = Mechanical stability of crystal form A (grinding experiment, XRPD); assay type: physicochemical; details: room temperature
Description: A certain amount of crystal form A of the compound shown in Formula (I) was weighed, and ground dry or wet with an appropriate amount of water for 3 minutes at room temperature (˜23° C., 70% RH) to evaluate the mechanical stability of the crystal form A. The XRPD spectrums are shown in FIG. 6.

[5] = molecular target: T1, Recombinant Human Elastase (rhElastase) (Homo sapiens, UniProt P08246); assay: Activity test against recombinant human elastase (rhElastase); assay type: biochemical
T1 sequence (P08246 30-267): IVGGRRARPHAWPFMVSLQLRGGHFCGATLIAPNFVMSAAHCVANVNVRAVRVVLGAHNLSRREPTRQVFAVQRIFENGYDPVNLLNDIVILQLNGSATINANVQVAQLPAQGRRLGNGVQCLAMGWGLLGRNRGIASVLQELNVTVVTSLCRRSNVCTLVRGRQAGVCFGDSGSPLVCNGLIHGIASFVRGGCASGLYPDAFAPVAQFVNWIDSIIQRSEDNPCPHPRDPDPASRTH
Description: Activation of protease: rhElastase was diluted to 2 μM with an activation buffer containing 1.25 μM Recombinant Mouse Active Cathepsin C Protein (mCathepsin C), and incubated at 37° C. for 2 h. After activation, the mature rhElastase was diluted to form a 3.33 nM rhElastase reaction solution. The compound was diluted in serial with DMSO and added to a 384-well plate (3-fold serial dilution, 10 concentration points, duplicate wells). For the 384-well plate containing the compound, columns 1-12 each was added with 15 μL of the reaction buffer and columns 13-24 each was added with 15 μL of the rhElastase reaction solution. The plate was pre-incubated at 25° C. for 30 min and added with 5 μL of the substrate to start the reaction. The final concentration of rhElastase is 2.5 nM, and the final concentration of the substrate is 3.125 μM. The final concentration of DMSO in the reaction system is 1%. After incubating at 37° C. for 60 min, the fluorescence value was read with an M4 microplate reader. The detection conditions are Ex/Em=380 nm/460 nm.

[6] = Pharmacokinetic experiment in Sprague-Dawley rats (intravenous / inhalation; plasma and lung); assay type: in vivo
Description: The appropriate amount of sodium citrate was weighed and dissolved in water to prepare a sodium citrate solution with a concentration of 1 mg/ml. After the addition of compound (I) (appropriate amount) under stirring, the sodium citrate solution was slowly added with 1 M sodium hydroxide solution to adjust the pH to 5.0±0.2. After stirring, dissolving and filtering, a stock solution of compound (I) with a concentration of 80 mg/ml was obtained, which is administrated by inhalation. The stock solution was diluted in a continuous gradient method to give a solution of compound (I) with a concentration of 0.4 mg/ml for intravenous administration.
21 male Sprague-Dawley rats was selected and divided into 7 groups (3 animals/group). Group 1 was administered intravenously at a dose of 2 mg/kg, and groups 2-7 are administered by inhalation at a designed dose of 15 mg/kg (an actual delivered dose is 16.712 mg/kg). For animals in groups 1-2, blood samples were collected before administration and at 2 min, 5 min, 15 min, 30 min, 1 h, 2 h, 4 h, 6 h, 8 h, and 24 h after administration. For animals in groups 3-7, lung tissues and blood samples were collected at 0.25 h, 1 h, 2 h, 6 h, and 12 h after administration (i.e., 2.25 h, 3 h, 4 h, 8 h, and 14 h After the start of the drug administration). The LC-MS/MS was used to analyze the concentration of compound (I) in the plasma and lung tissues of rats, and the non-compartmental model (NCA) of the pharmacokinetic analysis software WinNonlin (8.0.0.3176) is used to analyze the drug concentrations in plasma and lung tissue and calculate the pharmacokinetic parameters.

[7] = Citrate buffer pH = 3.5, room temperature, 2 hours
[8] = Citrate buffer pH = 3.5, room temperature, 8 hours
[9] = Citrate buffer pH = 3.5, room temperature, 30 hours
[10] = Citrate buffer pH = 4.5, room temperature, 2 hours
[11] = Citrate buffer pH = 4.5, room temperature, 8 hours
[12] = Citrate buffer pH = 4.5, room temperature, 30 hours
[13] = citrate buffer pH = 3.5, 2 hours
[14] = citrate buffer pH = 3.5, 8 hours
[15] = citrate buffer pH = 3.5, 30 hours
[16] = citrate buffer pH = 4.5, 2 hours
[17] = citrate buffer pH = 4.5, 8 hours
[18] = citrate buffer pH = 4.5, 30 hours
[19] = Inhalation, 15 mg/kg, SD rats, matrix Lung
[20] = Inhalation, 15 mg/kg, male SD rats, plasma
[21] = Intravenous, 2 mg/kg, male SD rats, plasma

## C#Cc1c(F)ccc2cc(O)cc(-c3ncc4c(N5CC6CCC(C5)N6)nc(OC[C@@]56CCCN5C[C@H](F)C6)nc4c3F)c12 [Amorphous]
[1]; 25° C./60 % RH, 1 week
  Content (%): 88.54%
  Crystal form: Amorphous
  Purity (area %): 97.58 area %
  Relative to initial (%): 99.0%
[1]; 25° C./60 % RH, 2 weeks
  Content (%): 86.62%
  Crystal form: Amorphous
  Purity (area %): 96.98 area %
  Relative to initial (%): 98.4%
[1]; 60° C.
  crystal form changes in the two-week stability assessment: neither the amorphous form nor crystal form A underwent crystal form changes
[1]; 40° C./75 % RH, 1 week
  Content (%): 87.54%
  Crystal form: Amorphous
  Purity (area %): 97.87 area %
  Relative to initial (%): 99.3%
[1]; 40° C./75 % RH, 2 weeks
  Content (%): 86.77%
  Crystal form: Amorphous
  Purity (area %): 96.87 area %
  Relative to initial (%): 98.3%
[1]; 60° C., 1 week
  Content (%): 90.96%
  Crystal form: Amorphous
  Purity (area %): 96.97 area %
  Relative to initial (%): 98.4%
[1]; 60° C., 2 weeks
  Content (%): 88.93%
  Crystal form: Amorphous
  Purity (area %): 96.14 area %
  Relative to initial (%): 97.5%
[1]; initial
  Content (%): 90.28%
  Crystal form: Amorphous
  Purity (area %): 98.56 area %
[2]
  Content (%): 82.68%
  Crystal form: Amorphous
  Purity (area %): 93.42 area %
  Relative to initial (%): 94.8%
  Initial Sample Content (%): 90.28%
  Initial Sample Purity (area %): 98.56 area %
  crystal form changes in the photostability test: neither the amorphous form nor crystal form A underwent crystal form changes
[3]; [7]
  Solubility: >37.77 mg/mL
[3]; [8]
  Solubility: >38.95 mg/mL
[3]; [9]
  Solubility: >37.45 mg/mL
[3]; [10]
  Solubility: >33.47 mg/mL
[3]; [11]
  Solubility: >35.71 mg/mL
[3]; [12]
  Solubility: >37.52 mg/mL
[3]; citrate buffer pH=3.5 and pH=4.5
  solubility in the citrate buffer systems (in words): excellent solubility
[3]; [13]
  pH: 3.63
[3]; [14]
  pH: 3.59
[3]; [15]
  pH: 3.56
[3]; [16]
  pH: 4.46
[3]; [17]
  pH: 4.44
[3]; [18]
  pH: 4.40

## CC(C)[C@H](NC(=O)[C@@H]1CCCN1C(=O)[C@@H](NC(=O)c1ccc(C(=O)NCC(=O)O)cc1)C(C)C)B1OB([C@@H](NC(=O)[C@@H]2CCCN2C(=O)[C@@H](NC(=O)c2ccc(C(=O)NCC(=O)O)cc2)C(C)C)C(C)C)OB([C@@H](NC(=O)[C@@H]2CCCN2C(=O)[C@@H](NC(=O)c2ccc(C(=O)NCC(=O)O)cc2)C(C)C)C(C)C)O1 [Form A]
[4]; Dry grind for 3 minutes
  Achieved Crystal Form: Amorphous
[4]; Dry grind for 3 minutes, listed as crystal form A
  Achieved Crystal Form: transformed into the amorphous form
[4]; Wet grind with water for 3 minutes
  Achieved Crystal Form: Form A
[4]; Wet grind with water for 3 minutes, listed as crystal form A
  Achieved Crystal Form: remains unchanged
[1]; 25° C./60 % RH, 1 week
  Content (%): 86.07%
  Crystal form: Form A
  Purity (area %): 97.98 area %
  Relative to initial (%): 98.9%
[1]; 25° C./60 % RH, 2 weeks
  Content (%): 86.60%
  Crystal form: Form A
  Purity (area %): 97.68 area %
  Relative to initial (%): 98.6%
[1]; 60° C.
  crystal form changes in the two-week stability assessment: neither the amorphous form nor crystal form A underwent crystal form changes
[1]; 40° C./75 % RH, 1 week
  Content (%): 86.41%
  Crystal form: Form A
  Purity (area %): 97.96 area %
  Relative to initial (%): 98.9%
[1]; 40° C./75 % RH, 2 weeks
  Content (%): 86.85%
  Crystal form: Form A
  Purity (area %): 97.76 area %
  Relative to initial (%): 98.7%
[1]; 60° C., 1 week
  Content (%): 87.34%
  Crystal form: Form A
  Purity (area %): 98.16 area %
  Relative to initial (%): 99.1%
[1]; 60° C., 2 weeks
  Content (%): 87.98%
  Crystal form: Form A
  Purity (area %): 97.50 area %
  Relative to initial (%): 98.4%
[1]; initial
  Content (%): 87.08%
  Crystal form: Form A
  Purity (area %): 99.05 area %
[2]
  Content (%): 85.00%
  Crystal form: Form A
  Purity (area %): 97.92 area %
  Relative to initial (%): 98.9%
  Initial Sample Content (%): 87.08%
  Initial Sample Purity (area %): 99.05 area %
  crystal form changes in the photostability test: neither the amorphous form nor crystal form A underwent crystal form changes
[3]; [7]
  Solubility: 6.15 mg/mL (≈ 4.1 mM)
[3]; [8]
  Solubility: 15.28 mg/mL (≈ 10.2 mM)
[3]; [9]
  Solubility: 27.16 mg/mL (≈ 18.1 mM)
[3]; [10]
  Solubility: 16.06 mg/mL (≈ 10.7 mM)
[3]; [11]
  Solubility: 31.34 mg/mL (≈ 20.9 mM)
[3]; [12]
  Solubility: >34.94 mg/mL
[3]; [13]
  pH: 3.56
[3]; [14]
  pH: 3.58
[3]; [15]
  pH: 3.56
[3]; [16]
  pH: 4.48
[3]; [17]
  pH: 4.46
[3]; [18]
  pH: 4.38

## CC(C)C(NC(=O)C1CCCN1C(=O)C(NC(=O)c1ccc(C(=O)NCC(=O)O)cc1)C(C)C)B1OB(C(NC(=O)C2CCCN2C(=O)C(NC(=O)c2ccc(C(=O)NCC(=O)O)cc2)C(C)C)C(C)C)OB(C(NC(=O)C2CCCN2C(=O)C(NC(=O)c2ccc(C(=O)NCC(=O)O)cc2)C(C)C)C(C)C)O1 (stereo not shown) [compound (I)]
[5]
  IC50: 1.32 nM
[6]; [19]
  Cmax: 67568.60
  Tmax: 2.25 h
  t1/2: 2.69 h
[6]; Inhalation, 15 mg/kg, SD rats, matrix Plasma
  Tmax: 2.25 h
[6]; Inhalation, 15 mg/kg, SD rats, matrix Plasma, in ng/mL
  Cmax: 320.58
[6]; Inhalation, 15 mg/kg, SD rats, matrix Plasma, in ng·h/mL
  AUClast: 622.35
[6]; Inhalation, 15 mg/kg, male SD rats
  F %: 18.09%
[6]; [20]
  AUClast: 1501.79 ± 486.138 ng·h/mL
  Cmax: 798.55 ± 333.20 ng/mL
  Tmax: 2.03 ± 0.0 h
  t1/2: 1.91 ± 1.05 h
[6]; [21]
  AUClast: 1107.18 ± 144.07 ng·h/mL
  Cmax: 5331.49 ± 696.49 ng/mL
  Tmax: 0.03 ± 0.0 h
  t1/2: 0.33 ± 0.10 h
